Measured values from patent US20250304567A1, “PYRROLIDIONE DERIVATIVES AS INHIBITORS OF NF KAPPA B INDUCING KINASE” (priority 2022, published 2025).

What was measured:
[1] = biological target: Recombinant Human NF-kappaB-Inducing Kinase (NIK/MAP3K14) (Homo sapiens, UniProt Q99558); assay: Inhibition of auto-phosphorylation of recombinant human NIK/MAP3K14 activity (AlphaScreen); format: biochemical; details: 5 μM ATP, 1 nM NIK, average if tested more than once
Outline: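 AlphaScreen detection of phospho-Ser176/180 after 1 nM GST-NIK auto-phosphorylates for 2 h at 25 °C with 5 μM ATP (50 mM Tris pH 7.5, 0.7% DMSO). IC50s come from sigmoidal curves of % inhibition against log dose, using enzyme-free, ATP-free low controls and full-activity high controls.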

[2] = test system: p-IKKa levels in L363 (NIK translocated multiple myeloma) cells; assay: Effect of compounds on p-IKKa levels in L363 (NIK translocated multiple myeloma) cells (AlphaLISA SureFire Ultra p-IKKa Ser176/180); format: cell-based, human; details: Homo sapiens, L-363, p-IKKa levels in L363 cells; average if tested more than once; read-out: Assay 2 IC50
Outline: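 Phospho-IKKa (Ser176/180) in lysates quantified by AlphaLISA after 6 h compound exposure, 11-point threefold dilutions, 0.3% DMSO. L363 cells were pre-stimulated overnight and assayed with 250 ng/ml BAFF and 10 μM MG132; % inhibition fitted sigmoidally for IC50, duplicate curves.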

Chain of Recombinant Human NF-kappaB-Inducing Kinase (NIK/MAP3K14) (Q99558 whole entry): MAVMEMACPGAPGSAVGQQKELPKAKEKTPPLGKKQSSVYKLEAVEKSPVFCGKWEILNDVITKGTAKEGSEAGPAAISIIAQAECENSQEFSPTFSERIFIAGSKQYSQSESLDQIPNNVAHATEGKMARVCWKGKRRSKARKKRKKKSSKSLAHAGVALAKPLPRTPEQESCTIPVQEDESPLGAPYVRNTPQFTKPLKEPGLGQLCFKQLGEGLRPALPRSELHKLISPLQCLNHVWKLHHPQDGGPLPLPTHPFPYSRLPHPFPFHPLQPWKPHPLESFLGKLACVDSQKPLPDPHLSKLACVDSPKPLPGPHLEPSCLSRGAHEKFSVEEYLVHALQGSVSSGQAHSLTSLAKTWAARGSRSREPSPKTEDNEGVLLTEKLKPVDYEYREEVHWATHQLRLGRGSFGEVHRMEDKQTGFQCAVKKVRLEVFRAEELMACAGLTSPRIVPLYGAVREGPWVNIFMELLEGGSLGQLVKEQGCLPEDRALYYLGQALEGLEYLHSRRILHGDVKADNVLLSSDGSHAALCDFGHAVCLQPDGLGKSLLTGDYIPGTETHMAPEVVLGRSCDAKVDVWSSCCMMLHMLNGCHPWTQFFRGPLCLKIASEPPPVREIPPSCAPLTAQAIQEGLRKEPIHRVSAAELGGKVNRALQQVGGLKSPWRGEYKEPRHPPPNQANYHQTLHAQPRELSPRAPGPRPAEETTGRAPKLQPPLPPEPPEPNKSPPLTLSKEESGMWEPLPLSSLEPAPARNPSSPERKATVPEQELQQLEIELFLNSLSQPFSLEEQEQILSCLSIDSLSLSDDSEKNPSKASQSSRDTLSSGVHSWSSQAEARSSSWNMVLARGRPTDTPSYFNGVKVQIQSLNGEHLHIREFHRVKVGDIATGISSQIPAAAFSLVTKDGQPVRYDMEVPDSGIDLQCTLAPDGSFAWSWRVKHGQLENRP

| Compound | IC50 [1] | IC50 [2] |
| --- | --- | --- |
| CN1CC[C@@](O)(c2cccc(-c3nc(-c4ccnc(Nc5ccn(CC(F)(F)F)n5)n4)cs3)c2)C1=O [Example 75, (R)-3-hydroxy-1-methyl-3-(3-(4-(2-((1-(2,2,2-trifluoroethyl)-1H-pyrazol-3-yl)amino)pyrimidin-4-yl)thiazol-2-yl)phenyl)pyrrolidin-2-one] | < 100 nM | 100 to 500 nM |
| CCn1ccc(Nc2nccc(-c3csc(-c4cccc([C@]5(O)CCN(C)C5=O)c4)n3)n2)n1 [Example 76, (R)-3-(3-(4-(2-((1-ethyl-1H-pyrazol-3-yl)amino)pyrimidin-4-yl)thiazol-2-yl)phenyl)-3-hydroxy-1-methylpyrrolidin-2-one] | < 100 nM | 100 to 500 nM |
| CN1CC[C@@](O)(c2cccc(-c3nc(-c4ccnc(Nc5ccccn5)n4)cs3)c2)C1=O [Example 77, (R)-3-hydroxy-1-methyl-3-(3-(4-(2-(pyridin-2-ylamino)pyrimidin-4-yl)thiazol-2-yl)phenyl)pyrrolidin-2-one] | < 100 nM | > 501 nM |
| CCOc1cn(C)nc1Nc1nccc(-c2csc(-c3cccc([C@]4(O)CCN(C)C4=O)c3)n2)n1 [Example 78, (R)-3-(3-(4-(2-((4-ethoxy-1-methyl-1H-pyrazol-3-yl)amino)pyrimidin-4-yl)thiazol-2-yl)phenyl)-3-hydroxy-1-methylpyrrolidin-2-one] | < 100 nM | < 100 nM |
| CN1CC[C@@](O)(c2cccc(-c3csc(-c4ccnc(Nc5cnn(C)c5)n4)n3)c2)C1=O [Example 79, (R)-3-hydroxy-1-methyl-3-(3-(2-(2-((1-methyl-1H-pyrazol-4-yl)amino)pyrimidin-4-yl)thiazol-4-yl)phenyl)pyrrolidin-2-one] | < 100 nM | > 501 nM |
| CN1CC[C@@](O)(c2cccc(-c3csc(-c4ccnc(Nc5cnn(CC(F)F)c5)n4)n3)c2)C1=O [Example 80, (R)-3-(3-(2-(2-((1-(2,2-difluoroethyl)-1H-pyrazol-4-yl)amino)pyrimidin-4-yl)thiazol-4-yl)phenyl)-3-hydroxy-1-methylpyrrolidin-2-one] | < 100 nM | < 100 nM |
| Cc1cc(Nc2nccc(-c3nc(-c4cccc([C@]5(O)CCN(C)C5=O)c4)cs3)n2)n(C)n1 [Example 81, (R)-3-(3-(2-(2-((1,3-dimethyl-1H-pyrazol-5-yl)amino)pyrimidin-4-yl)thiazol-4-yl)phenyl)-3-hydroxy-1-methylpyrrolidin-2-one] | 100 to 500 nM | > 501 nM |
| CN1CC[C@@](O)(c2cccc(-c3csc(-c4ccnc(Nc5cnn6ccccc56)n4)n3)c2)C1=O [Example 82, (R)-3-hydroxy-1-methyl-3-(3-(2-(2-(pyrazolo[1,5-a]pyridin-3-ylamino)pyrimidin-4-yl)thiazol-4-yl)phenyl)pyrrolidin-2-one] | < 100 nM | < 100 nM |
| CN1CC[C@@](O)(c2cccc(-c3csc(-c4ccnc(Nc5cnn(CCO)c5)n4)n3)c2)C1=O [Example 83, (R)-3-hydroxy-3-(3-(2-(2-((1-(2-hydroxyethyl)-1H-pyrazol-4-yl)amino)pyrimidin-4-yl)thiazol-4-yl)phenyl)-1-methylpyrrolidin-2-one] | < 100 nM | > 501 nM |
| COc1cc(Nc2nccc(-c3nc(-c4cccc([C@]5(O)CCN(C)C5=O)c4)cs3)n2)n(C)n1 [Example 84, (R)-3-hydroxy-3-(3-(2-(2-((3-methoxy-1-methyl-1H-pyrazol-5-yl)amino)pyrimidin-4-yl)thiazol-4-yl)phenyl)-1-methylpyrrolidin-2-one] | > 501 nM | > 501 nM |
| CN1CC[C@@](O)(c2cccc(-c3csc(-c4ccnc(Nc5cnn6cccnc56)n4)n3)c2)C1=O [Example 85, (R)-3-hydroxy-1-methyl-3-(3-(2-(2-(pyrazolo[1,5-a]pyrimidin-3-ylamino)pyrimidin-4-yl)thiazol-4-yl)phenyl)pyrrolidin-2-one] | < 100 nM | < 100 nM |
| COCCn1cc(Nc2nccc(-c3nc(-c4cccc([C@]5(O)CCN(C)C5=O)c4)cs3)n2)cn1 [Example 86, (R)-3-hydroxy-3-(3-(2-(2-((1-(2-methoxyethyl)-1H-pyrazol-4-yl)amino)pyrimidin-4-yl)thiazol-4-yl)phenyl)-1-methylpyrrolidin-2-one] | < 100 nM | < 100 nM |
| CN1CCC(n2cc(Nc3nccc(-c4nc(-c5cccc([C@]6(O)CCN(C)C6=O)c5)cs4)n3)cn2)CC1 [Example 87, (R)-3-hydroxy-1-methyl-3-(3-(2-(2-((1-(1-methylpiperidin-4-yl)-1H-pyrazol-4-yl)amino)pyrimidin-4-yl)thiazol-4-yl)phenyl)pyrrolidin-2-one] | < 100 nM | 100 to 500 nM |
| CN1CC[C@@](O)(c2cccc(-c3csc(-c4ccnc(Nc5cnn(C6CCS(=O)(=O)CC6)c5)n4)n3)c2)C1=O [Example 88, (R)-3-(3-(2-(2-((1-(1,1-dioxidotetrahydro-2H-thiopyran-4-yl)-1H-pyrazol-4-yl)amino)pyrimidin-4-yl)thiazol-4-yl)phenyl)-3-hydroxy-1-methylpyrrolidin-2-one] | < 100 nM | 100 to 500 nM |
| CN1CC[C@@](O)(c2cccc(-c3csc(-c4ccnc(Nc5cnn(CC(C)(C)O)c5)n4)n3)c2)C1=O [Example 89, (R)-3-hydroxy-3-(3-(2-(2-((1-(2-hydroxy-2-methylpropyl)-1H-pyrazol-4-yl)amino)pyrimidin-4-yl)thiazol-4-yl)phenyl)-1-methylpyrrolidin-2-one] | < 100 nM | < 100 nM |
| CN1CC[C@@](O)(c2cccc(-c3ccn(-c4ccnc(Nc5cnn(C)c5)n4)n3)c2)C1=O [Example 90, (R)-3-hydroxy-1-methyl-3-(3-(1-(2-((1-methyl-1H-pyrazol-4-yl)amino)pyrimidin-4-yl)-1H-pyrazol-3-yl)phenyl)pyrrolidin-2-one] | < 100 nM | 100 to 500 nM |
| CN1CC[C@@](O)(c2cccc(-c3nc(-c4ccnc(Nc5cn(C)nc5OC5CCCC5)n4)cs3)c2)C1=O [Example 95, (R)-3-(3-(4-(2-((3-(cyclopentyloxy)-1-methyl-1H-pyrazol-4-yl)amino)pyrimidin-4-yl)thiazol-2-yl)phenyl)-3-hydroxy-1-methylpyrrolidin-2-one] | < 100 nM | 100 to 500 nM |
| CN1CC[C@@](O)(c2cccc(-c3nc(-c4ccnc(Nc5cn(C)nc5OCC(F)F)n4)cs3)c2)C1=O [Example 96, (R)-3-(3-(4-(2-((3-(2,2-difluoroethoxy)-1-methyl-1H-pyrazol-4-yl)amino)pyrimidin-4-yl)thiazol-2-yl)phenyl)-3-hydroxy-1-methylpyrrolidin-2-one] | < 100 nM | < 100 nM |
| CN1CC[C@@](O)(c2cccc(-c3nc(-c4ccnc(Nc5cn(C)nc5OC5CCC5)n4)cs3)c2)C1=O [Example 97, (R)-3-(3-(4-(2-((3-cyclobutoxy-1-methyl-1H-pyrazol-4-yl)amino)pyrimidin-4-yl)thiazol-2-yl)phenyl)-3-hydroxy-1-methylpyrrolidin-2-one] | < 100 nM | < 100 nM |
| CN1CC[C@@](O)(c2cccc(-c3nc(-c4ccnc(Nc5cn(C)nc5OCC(F)(F)F)n4)cs3)c2)C1=O [Example 98, (R)-3-hydroxy-1-methyl-3-(3-(4-(2-((1-methyl-3-(2,2,2-trifluoroethoxy)-1H-pyrazol-4-yl)amino)pyrimidin-4-yl)thiazol-2-yl)phenyl)pyrrolidin-2-one] | < 100 nM | < 100 nM |
| CN1CC[C@@](O)(c2cccc(-c3nc(-c4ccnc(Nc5cn(C)nc5OC(F)F)n4)cs3)c2)C1=O [Example 99, (R)-3-(3-(4-(2-((3-(difluoromethoxy)-1-methyl-1H-pyrazol-4-yl)amino)pyrimidin-4-yl)thiazol-2-yl)phenyl)-3-hydroxy-1-methylpyrrolidin-2-one] | < 100 nM | < 100 nM |
| CC(C)Oc1nn(C)cc1Nc1nccc(-c2csc(-c3cccc([C@]4(O)CCN(C)C4=O)c3)n2)n1 [Example 100, (R)-3-hydroxy-3-(3-(4-(2-((3-isopropoxy-1-methyl-1H-pyrazol-4-yl)amino)pyrimidin-4-yl)thiazol-2-yl)phenyl)-1-methylpyrrolidin-2-one] | < 100 nM | < 100 nM |
| COc1nn(CC(F)(F)F)cc1Nc1nccc(-c2csc(-c3cccc([C@]4(O)CCN(C)C4=O)c3)n2)n1 [Example 101, (R)-3-hydroxy-3-(3-(4-(2-((3-methoxy-1-(2,2,2-trifluoroethyl)-1H-pyrazol-4-yl)amino)pyrimidin-4-yl)thiazol-2-yl)phenyl)-1-methylpyrrolidin-2-one] | < 100 nM | < 100 nM |
| CN1CC[C@@](O)(c2cccc(-c3ccn(-c4ccnc(Nc5cn(CC(F)F)nc5OC5CC5)n4)n3)c2)C1=O [Example 102, (R)-3-(3-(1-(2-((3-cyclopropoxy-1-(2,2-difluoroethyl)-1H-pyrazol-4-yl)amino)pyrimidin-4-yl)-1H-pyrazol-3-yl)phenyl)-3-hydroxy-1-methylpyrrolidin-2-one] | < 100 nM | < 100 nM |
| CCn1cc(Nc2nccc(-c3csc(-c4cccc([C@]5(O)CCN(C)C5=O)c4)n3)n2)c(OC)n1 [Example 103, (R)-3-(3-(4-(2-((1-ethyl-3-methoxy-1H-pyrazol-4-yl)amino)pyrimidin-4-yl)thiazol-2-yl)phenyl)-3-hydroxy-1-methylpyrrolidin-2-one] | < 100 nM | 100 to 500 nM |
